# Measurements published in patent publication US8772319B2 (priority 2004, dated 2014).
# Values joined by “and” are separate entries in the source; they are usually repeats but may differ in a detail not shown here. Identical values can stand only once. Counter-ions that a name gives are not always drawn. Like-named read-outs stand apart in the source and are kept apart here.
# Key:
# [1] = target: T1, human dopamine transporter (hDAT) (Homo sapiens, UniProt Q01959); assay: cell-based
# male Swiss-Webster mice [2] = assay: Cocaine/compound interaction study on locomotor activity; format: in vivo, mouse; conditions: for Attenuation of cocaine-induced LMA: 20 mg/kg of cocaine; for AD50, dose attenuating cocaine-induced stimulation by 50%: Table 8, ligand-cocaine interaction study, 20 mg/kg cocaine IP
# [3] = target: T1, human dopamine transporter (hDAT); assay: biochemical; format: binding
# male Swiss-Webster mice [4] = assay: Locomotor activity, compound alone, 1-h session; format: in vivo, mouse; conditions: for ED50: Mus musculus, ip, 1 h, read-out: ED50, dose producing 1/2 maximal stimulant activity (S, stimulation); for mode of action: ligand alone study; for ME/CME, Maximal Effect/Cocaine Maximal Effect: mouse locomotor activity; for effect on spontaneous LMA: compound alone
# Protocol: (§1) 3. Locomotor Activity. […] Panels of infrared beams (16 beams) and corresponding photodetectors were located in the horizontal direction along the sides of each activity chamber. […] Just prior to placement in the apparatus, all mice received a saline injection IP. In all studies, horizontal activity (interruption of 1 photocell beam) was measured for 1-h within 10-min periods. Testing was conducted with one mouse per activity chamber. […] Plot the mean (±SEM) maximal stimulant activity (total counts in the 30 min period divided by 3) vs dose. Perform a log10 transformation of the 30 min period average counts for individual subjects to homogenize variances for subsequent analyses. […] Fit the 30 min period average counts across subjects to a function of log10 dose using least-squares curve-fitting analyses (i.e. TableCurve software from Jandel). Estimate the maximum effect from the resultant dose-response curve. […] Determine the ED50 (dose that produces ½ maximal stimulant activity) from a linear regression analysis of the ascending portion (up to the dose that produces a maximal effect) of the curve. […] Plot the mean (±SEM) activity (total counts in the 30 min period divided by 3) vs dose. Perform a log10 transformation of the 30 min period average counts for individual subjects to homogenize variances for subsequent analyses. Conduct an ANOVA and contrast (specified a priori) each dose of the test compound to the vehicle to determine significant (p<0.05) dose effects. Conduct a linear least-squares regression analysis; regress the min period average counts across subjects over the descending portion of the curve against the log10 dose of the test compound. […] Perform a log10 transformation of the 30 min period average counts for individual subjects to homogenize variances for subsequent analyses. […] Conduct a linear least-squares regression analysis; regress the 30 min period average counts across subjects over the descending portion of the curve against the log10 dose of the test compound. […] Locomotor Activity 8-hour time course/dose response study. […] A panel of infrared beams (16 beams) and corresponding photodetectors were located in the horizontal direction along the sides of each activity chamber. A 7.5-W incandescent light above each chamber provided dim illumination. Fans provided an 80-dB ambient noise level within the chamber. […] In all studies, horizontal activity (interruption of photocell beams) was measured for 8-h within 10-min periods, beginning at 0800 hrs (2 hours after lights on). Testing was conducted with one mouse per activity chamber. Compound alone study.
# [5] = target: T2, human norepinephrine transporter (hNET) (Homo sapiens, UniProt P23975); assay: biochemical; conditions: Table 5, read-out: NET binding affinity Ki
# male Swiss-Webster mice [6] = assay: Locomotor activity 8-hour time course/dose response study; conditions: for ED50: Mus musculus, ip, 8 h, read-out: ED50, dose producing 1/2 maximal stimulant activity (S, stimulation)
# Protocol: as §1
# [7] = target: T3, human serotonin transporter (hSERT) (Homo sapiens, UniProt P31645); assay: cell-based
# [8] = target: T2, human norepinephrine transporter (hNET); assay: cell-based; conditions: Table 6, read-out: Reuptake Inhibition [3H]NE IC50
# [9] = target: T3, human serotonin transporter (hSERT); assay: biochemical; conditions: Table 5; [125I]RTI-55; oxalate salts; read-out: SERT binding affinity Ki
# [10] = Table 8, mouse, IP, ligand alone, 1-h session
# [11] = Reuptake Inhibition [3H]5-HT IC50, Table 6
# [12] = Reuptake Inhibition [3H]DA IC50, Table 6
# T3 sequence (P31645 whole entry): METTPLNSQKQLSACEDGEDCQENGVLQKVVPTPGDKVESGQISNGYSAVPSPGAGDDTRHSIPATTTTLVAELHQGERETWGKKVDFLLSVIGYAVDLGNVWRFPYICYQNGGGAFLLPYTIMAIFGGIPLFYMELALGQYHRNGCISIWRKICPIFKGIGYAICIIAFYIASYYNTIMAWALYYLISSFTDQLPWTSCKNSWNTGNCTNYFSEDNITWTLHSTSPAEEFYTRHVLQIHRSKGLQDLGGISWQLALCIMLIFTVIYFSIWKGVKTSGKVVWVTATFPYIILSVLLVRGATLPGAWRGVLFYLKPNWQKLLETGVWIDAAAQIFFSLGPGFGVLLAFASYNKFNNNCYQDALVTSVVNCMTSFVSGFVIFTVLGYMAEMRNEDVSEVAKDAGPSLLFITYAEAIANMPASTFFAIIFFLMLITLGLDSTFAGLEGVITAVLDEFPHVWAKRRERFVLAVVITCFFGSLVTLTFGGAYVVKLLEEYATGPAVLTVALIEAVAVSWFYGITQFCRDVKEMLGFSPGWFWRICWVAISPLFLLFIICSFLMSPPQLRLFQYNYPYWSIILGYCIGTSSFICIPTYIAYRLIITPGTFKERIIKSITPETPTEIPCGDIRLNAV
# T1 sequence (Q01959 whole entry): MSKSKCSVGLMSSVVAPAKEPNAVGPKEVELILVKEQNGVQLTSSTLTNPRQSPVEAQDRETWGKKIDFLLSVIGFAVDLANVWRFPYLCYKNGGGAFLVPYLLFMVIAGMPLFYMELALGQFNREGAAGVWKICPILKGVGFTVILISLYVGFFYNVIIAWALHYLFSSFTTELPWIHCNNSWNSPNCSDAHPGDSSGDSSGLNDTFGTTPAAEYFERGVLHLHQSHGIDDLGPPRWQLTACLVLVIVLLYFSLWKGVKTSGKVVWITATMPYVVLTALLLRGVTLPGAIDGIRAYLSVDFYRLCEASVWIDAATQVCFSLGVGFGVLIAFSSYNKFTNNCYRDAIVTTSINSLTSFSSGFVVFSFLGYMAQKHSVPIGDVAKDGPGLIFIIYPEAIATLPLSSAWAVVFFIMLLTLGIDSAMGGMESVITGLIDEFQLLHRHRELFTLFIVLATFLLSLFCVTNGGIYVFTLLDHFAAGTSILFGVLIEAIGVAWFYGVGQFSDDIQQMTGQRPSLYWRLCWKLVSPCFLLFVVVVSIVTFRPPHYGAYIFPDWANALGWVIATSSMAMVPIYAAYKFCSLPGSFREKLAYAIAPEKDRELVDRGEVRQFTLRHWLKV
# T2 sequence (P23975 whole entry): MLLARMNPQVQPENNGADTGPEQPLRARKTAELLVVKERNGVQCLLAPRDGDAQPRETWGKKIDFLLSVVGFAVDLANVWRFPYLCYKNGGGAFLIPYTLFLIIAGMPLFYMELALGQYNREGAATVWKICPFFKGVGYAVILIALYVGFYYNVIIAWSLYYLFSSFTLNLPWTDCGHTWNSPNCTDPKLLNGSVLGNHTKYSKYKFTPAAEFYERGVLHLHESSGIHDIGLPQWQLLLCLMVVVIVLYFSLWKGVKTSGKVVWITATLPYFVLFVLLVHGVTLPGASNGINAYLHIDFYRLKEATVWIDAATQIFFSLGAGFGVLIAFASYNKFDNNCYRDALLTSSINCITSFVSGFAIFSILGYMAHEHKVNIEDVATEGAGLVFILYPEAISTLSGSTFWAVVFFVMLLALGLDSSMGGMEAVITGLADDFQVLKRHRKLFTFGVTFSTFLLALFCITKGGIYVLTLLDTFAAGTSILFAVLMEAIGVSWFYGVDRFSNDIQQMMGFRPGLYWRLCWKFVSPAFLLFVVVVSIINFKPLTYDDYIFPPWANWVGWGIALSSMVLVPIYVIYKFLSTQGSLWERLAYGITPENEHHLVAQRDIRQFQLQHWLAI
smiles,measurement,setting,value
"O=C1CN(CCCCOC(c2ccc(F)cc2)c2ccc(F)cc2)CCN1 (as salt: oxalate) [Compound 27, 2-Oxo-4-[4-[bis(4-fluorophenyl)methoxy]butyl]piperazine]",melting point,,120 to 123 °C
"Fc1ccc(C(OCCCCN2CCN(c3ccccc3)CC2)c2ccc(F)cc2)cc1 (as salt: oxalate) [Compound 29, 1-Phenyl-4-[4-[bis(4-fluorophenyl)methoxy]butyl]piperazine]",melting point,,185 to 187 °C
"Fc1ccc(C(OCCCCN2CCN(c3ccccc3F)CC2)c2ccc(F)cc2)cc1 (as salt: oxalate) [Compound 30, 1-(2-Fluorophenyl)-4-[4-[bis(4-fluorophenyl)methoxy]butyl]piperazine]",melting point,,156 to 158 °C
"Fc1ccc(C(OCCCCN2CCN(c3ccc(Cl)cc3)CC2)c2ccc(F)cc2)cc1 (as salt: oxalate) [Compound 34, 1-(4-Chlorophenyl)-4-[4-[bis(4-fluorophenyl)methoxy]butyl]piperazine]",melting point,,179 to 181 °C
"COc1ccccc1N1CCN(CCCCOC(c2ccc(F)cc2)c2ccc(F)cc2)CC1 (as salt: oxalate) [Compound 35, 1-(2-Methoxyphenyl)-4-[4-[bis(4-fluorophenyl)methoxy]butyl]piperazine]",melting point,,139 to 142 °C
"O=[N+]([O-])c1ccc(N2CCN(CCCCOC(c3ccc(F)cc3)c3ccc(F)cc3)CC2)cc1 (as salt: oxalate) [Compound 38, 1-[4-Nitrophenyl]-4-[1-[bis(4-fluorophenyl)methoxy]-4-butyl]piperazine]",melting point,,196 to 198 °C
"O=C(c1ccccc1)N1CCN(CCCCOC(c2ccc(F)cc2)c2ccc(F)cc2)CC1 (as salt: oxalate) [Compound 40, 1-Benzoyl-4-[1-[bis(4-fluorophenyl)methoxy]-4-butyl]piperazine]",melting point,,121 to 123 °C
"Fc1ccc(C(OCCCCN2CCN(Cc3ccc4c(c3)OCO4)CC2)c2ccc(F)cc2)cc1 (as salt: oxalate) [Compound 41, 1-Benzo[1,3]dioxol-5-ylmethyl-4-[4-[bis(4-fluorophenyl)methoxy]butyl]piperazine]",melting point,,231 to 234 °C
"O=[N+]([O-])c1ccc(S(=O)(=O)N2CCN(CCCCOC(c3ccc(F)cc3)c3ccc(F)cc3)CC2)cc1 (as salt: oxalate) [Compound 42, 1-[4-[Bis(4-fluorophenyl)methoxy]butyl]-4-(4-nitrobenzenesulfonyl)piperazine]",melting point,,170 to 173 °C
"Fc1ccc(C(OCCCCN2CCN(c3ccccc3F)CC2)c2ccc(F)cc2)cc1 [Compound 30, 1-(2-Fluorophenyl)-4-[4-[bis(4-fluorophenyl)methoxy]butyl]piperazine]",Discrimination Ratios (DR) [3H]DA reuptake/DAT binding,[1]; Table 6,11.9
same,Attenuation of cocaine-induced LMA,male Swiss-Webster mice [2],failed to attenuate
same,"AD50, dose attenuating cocaine-induced stimulation by 50%",male Swiss-Webster mice [2],no attenuation
same,Binding Ratios NET/DAT,[3]; Table 5,10.8
same,Binding Ratios SERT/DAT,[3]; Table 5,0.8
same,ED50,male Swiss-Webster mice [4],0.015 mg/kg
same,mode of action,male Swiss-Webster mice [4]; Table 8,monophasic
same,"ME/CME, Maximal Effect/Cocaine Maximal Effect",male Swiss-Webster mice [4]; Table 8,0.49
same,effect on spontaneous LMA,male Swiss-Webster mice [4]; mouse,significant increase
"Fc1ccc(C(OCCCCN2CCN(c3cccc(C(F)(F)F)c3)CC2)c2ccc(F)cc2)cc1 [Compound 36, 1-[3-(Trifluoromethyl)phenyl]-4-[4-[bis(4-fluorophenyl)methoxy]butyl]piperazine]",Ki,"[5]; [125I]RTI-55, oxalate salts",0.222 ± 0.0097 µM
same,Discrimination Ratios (DR) [3H]DA reuptake/DAT binding,[1]; Table 6,11.7
same,ED50,male Swiss-Webster mice [6],1.1 mg/kg
same,"ME/CME, Maximal Effect/Cocaine Maximal Effect","male Swiss-Webster mice [6]; Table 9, 8 hours",0.46
same,mode of action,"male Swiss-Webster mice [6]; Table 9, ligand alone study, 8 hours",monophasic
same,"AD50, dose attenuating cocaine-induced stimulation by 50%",male Swiss-Webster mice [2],18.35 mg/kg
same,Binding Ratios NET/DAT,[3]; Table 5,6.8
same,Binding Ratios SERT/DAT,[3]; Table 5,6.8
same,mode of action,male Swiss-Webster mice [4]; Table 8,monophasic
same,"ID50, dose producing 1/2 maximal depressant activity (I, inhibition)",male Swiss-Webster mice [4]; [10],113 mg/kg and 113/I^g mg/kg
same,effect on spontaneous LMA,male Swiss-Webster mice [4]; mouse,Significant suppression
"O=[N+]([O-])c1ccc(N2CCN(CCCCOC(c3ccc(F)cc3)c3ccc(F)cc3)CC2)cc1 [Compound 38, 1-[4-Nitrophenyl]-4-[1-[bis(4-fluorophenyl)methoxy]-4-butyl]piperazine]",Ki,"[5]; [125I]RTI-55, oxalate salts",0.239 ± 0.013 µM
same,IC50,[7]; [11],0.39 ± 0.13 µM
same,IC50,[1]; [12],2.35 ± 0.54 µM
same,Discrimination Ratios (DR) [3H]DA reuptake/DAT binding,[1]; Table 6,39.2
same,IC50,[8],0.23 ± 0.11 µM
same,Ki,[9],0.154 ± 0.044 µM
same,Ki,[3],0.06 ± 0.019 µM
same,Binding Ratios NET/DAT,[3]; Table 5,4.0
same,Binding Ratios SERT/DAT,[3]; Table 5,2.6
"Fc1ccc(C(OCCCCN2CCN(Cc3ccc4c(c3)OCO4)CC2)c2ccc(F)cc2)cc1 [Compound 41, 1-Benzo[1,3]dioxol-5-ylmethyl-4-[4-[bis(4-fluorophenyl)methoxy]butyl]piperazine]",Ki,"[5]; [125I]RTI-55, oxalate salts",0.055 ± 0.018 µM
same,IC50,[7]; [11],3.28 ± 0.61 µM
same,IC50,[1]; [12],1 ± 0.06 µM
same,Discrimination Ratios (DR) [3H]DA reuptake/DAT binding,[1]; Table 6,30.3
same,IC50,[8],0.043 ± 0.019 µM
same,Ki,[9],0.059 ± 0.022 µM
same,Ki,[3],0.033 ± 0.013 µM
same,Binding Ratios NET/DAT,[3]; Table 5,1.7
same,Binding Ratios SERT/DAT,[3]; Table 5,1.8
"O=[N+]([O-])c1ccc(S(=O)(=O)N2CCN(CCCCOC(c3ccc(F)cc3)c3ccc(F)cc3)CC2)cc1 [Compound 42, 1-[4-[Bis(4-fluorophenyl)methoxy]butyl]-4-(4-nitrobenzenesulfonyl)piperazine]",Ki,[5]; bound given in μM,> 10 µM
same,IC50,"[7]; Table 6, bound given in μM, read-out: Reuptake Inhibition [3H]5-HT IC50",> 10 µM
same,Discrimination Ratios (DR) [3H]DA reuptake/DAT binding,[1]; Table 6,5.5
same,IC50,"[1]; Table 6, read-out: Reuptake Inhibition [3H]DA IC50",4.2 ± 1.1 µM
same,IC50,[8]; bound given in μM,> 10 µM
same,Ki,[9],4.93 ± 0.67 µM
same,Attenuation of cocaine-induced LMA,male Swiss-Webster mice [2],failed to attenuate
same,"AD50, dose attenuating cocaine-induced stimulation by 50%",male Swiss-Webster mice [2],no attenuation
same,Binding Ratios NET/DAT,[3]; Table 5,>13.2
same,Binding Ratios SERT/DAT,[3]; Table 5,6.5
same,Ki,"[3]; Table 5, [125I]RTI-55, oxalate salts, read-out: DAT binding affinity Ki",0.76 ± 0.22 µM
same,"ED50, dose producing 1/2 maximal stimulant activity (S, stimulation)",male Swiss-Webster mice [4]; [10],no activity
"Fc1ccc(C(OCCN2CCN(CCCc3ccccc3)CC2)c2ccc(F)cc2)cc1 [GBR 12909, reference compound]",ED50,male Swiss-Webster mice [6],6.9 mg/kg
same,"ME/CME, Maximal Effect/Cocaine Maximal Effect","male Swiss-Webster mice [6]; Table 9, 8 hours",0.73
same,ED50,male Swiss-Webster mice [4],6.24 mg/kg
same,"ME/CME, Maximal Effect/Cocaine Maximal Effect",male Swiss-Webster mice [4]; Table 8,1.22
